Data from ChEMBL document CHEMBL4507268 (2021).

Tests used:
[1] = molecular target: Serine/threonine-protein kinase SIK3 (Homo sapiens) (UniProt Q9Y2K2); conditions: Compound concentration 1000.0 nM
[2] = tested on: Epidermal growth factor receptor (Homo sapiens), P00533 [L858R]; conditions: Compound concentration 1000.0 nM
[3] = molecular target: Serine/threonine-protein kinase Chk2 (Homo sapiens) (UniProt O96017); conditions: Compound concentration 1000.0 nM
[4] = molecular target: Mitogen-activated protein kinase kinase kinase 12 (Homo sapiens) (UniProt Q12852); conditions: Compound concentration 1000.0 nM
[5] = molecular target: Receptor-interacting serine/threonine-protein kinase 4 (Homo sapiens) (UniProt P57078); conditions: Compound concentration 1000.0 nM
[6] = molecular target: Cyclin-dependent kinase 4 (Homo sapiens) (UniProt P11802); conditions: Compound concentration 1000.0 nM
[7] = molecular target: Calcium/calmodulin-dependent protein kinase type II subunit gamma (Homo sapiens) (UniProt Q13555); conditions: Compound concentration 1000.0 nM
[8] = molecular target: Serine/threonine-protein kinase MRCK beta (Homo sapiens) (UniProt Q9Y5S2); conditions: Compound concentration 1000.0 nM
[9] = molecular target: T1, Tyrosine-protein kinase Tec (Homo sapiens) (UniProt P42680); conditions: Compound concentration 1000.0 nM
T1 sequence (whole entry): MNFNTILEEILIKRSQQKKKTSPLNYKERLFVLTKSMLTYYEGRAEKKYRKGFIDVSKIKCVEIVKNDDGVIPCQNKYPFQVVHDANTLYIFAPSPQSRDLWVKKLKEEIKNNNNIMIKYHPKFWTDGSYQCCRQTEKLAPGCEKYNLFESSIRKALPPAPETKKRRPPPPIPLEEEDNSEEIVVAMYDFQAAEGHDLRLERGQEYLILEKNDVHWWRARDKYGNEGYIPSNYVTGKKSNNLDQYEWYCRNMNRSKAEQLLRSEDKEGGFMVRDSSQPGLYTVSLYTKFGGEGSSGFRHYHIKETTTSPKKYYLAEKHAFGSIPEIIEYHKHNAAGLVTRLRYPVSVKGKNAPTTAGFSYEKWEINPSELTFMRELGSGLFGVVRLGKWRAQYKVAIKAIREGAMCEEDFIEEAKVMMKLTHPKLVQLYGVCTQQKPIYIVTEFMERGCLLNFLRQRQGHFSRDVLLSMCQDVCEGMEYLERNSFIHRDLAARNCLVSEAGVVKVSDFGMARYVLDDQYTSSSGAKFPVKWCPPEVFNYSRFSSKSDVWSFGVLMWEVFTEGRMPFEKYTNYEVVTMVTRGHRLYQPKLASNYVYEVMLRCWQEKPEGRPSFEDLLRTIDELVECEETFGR

[10] = molecular target: T2, Dual specificity mitogen-activated protein kinase kinase 7 (Homo sapiens) (UniProt O14733); conditions: Compound concentration 1000.0 nM
T2 sequence (whole entry): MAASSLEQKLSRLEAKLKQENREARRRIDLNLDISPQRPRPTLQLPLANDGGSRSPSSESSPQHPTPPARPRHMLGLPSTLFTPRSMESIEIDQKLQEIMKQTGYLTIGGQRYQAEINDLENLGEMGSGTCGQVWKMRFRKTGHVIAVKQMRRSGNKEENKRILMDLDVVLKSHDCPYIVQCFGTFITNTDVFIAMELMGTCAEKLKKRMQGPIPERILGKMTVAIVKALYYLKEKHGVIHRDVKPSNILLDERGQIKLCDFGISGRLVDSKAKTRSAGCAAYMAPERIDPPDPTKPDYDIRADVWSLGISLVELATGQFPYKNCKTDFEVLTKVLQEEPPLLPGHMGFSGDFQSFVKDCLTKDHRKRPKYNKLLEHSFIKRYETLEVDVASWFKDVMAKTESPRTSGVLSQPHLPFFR

[11] = molecular target: Receptor-type tyrosine-protein kinase FLT3 (Homo sapiens) (UniProt P36888); conditions: Compound concentration 1000.0 nM
[12] = molecular target: Muscarinic acetylcholine receptor M5 (Homo sapiens) (UniProt P08912); conditions: Compound concentration 10.0 uM
[13] = molecular target: STE20/SPS1-related proline-alanine-rich protein kinase (Homo sapiens) (UniProt Q9UEW8); conditions: Compound concentration 1000.0 nM
[14] = molecular target: Alpha-1A adrenergic receptor (Homo sapiens) (UniProt P35348); conditions: Compound concentration 10.0 uM
[15] = molecular target: Insulin receptor-related protein (Homo sapiens) (UniProt P14616); conditions: Compound concentration 1000.0 nM
[16] = molecular target: T3, Serine/threonine-protein kinase TAO1 (Homo sapiens) (UniProt Q7L7X3); conditions: Compound concentration 1000.0 nM
T3 sequence (whole entry): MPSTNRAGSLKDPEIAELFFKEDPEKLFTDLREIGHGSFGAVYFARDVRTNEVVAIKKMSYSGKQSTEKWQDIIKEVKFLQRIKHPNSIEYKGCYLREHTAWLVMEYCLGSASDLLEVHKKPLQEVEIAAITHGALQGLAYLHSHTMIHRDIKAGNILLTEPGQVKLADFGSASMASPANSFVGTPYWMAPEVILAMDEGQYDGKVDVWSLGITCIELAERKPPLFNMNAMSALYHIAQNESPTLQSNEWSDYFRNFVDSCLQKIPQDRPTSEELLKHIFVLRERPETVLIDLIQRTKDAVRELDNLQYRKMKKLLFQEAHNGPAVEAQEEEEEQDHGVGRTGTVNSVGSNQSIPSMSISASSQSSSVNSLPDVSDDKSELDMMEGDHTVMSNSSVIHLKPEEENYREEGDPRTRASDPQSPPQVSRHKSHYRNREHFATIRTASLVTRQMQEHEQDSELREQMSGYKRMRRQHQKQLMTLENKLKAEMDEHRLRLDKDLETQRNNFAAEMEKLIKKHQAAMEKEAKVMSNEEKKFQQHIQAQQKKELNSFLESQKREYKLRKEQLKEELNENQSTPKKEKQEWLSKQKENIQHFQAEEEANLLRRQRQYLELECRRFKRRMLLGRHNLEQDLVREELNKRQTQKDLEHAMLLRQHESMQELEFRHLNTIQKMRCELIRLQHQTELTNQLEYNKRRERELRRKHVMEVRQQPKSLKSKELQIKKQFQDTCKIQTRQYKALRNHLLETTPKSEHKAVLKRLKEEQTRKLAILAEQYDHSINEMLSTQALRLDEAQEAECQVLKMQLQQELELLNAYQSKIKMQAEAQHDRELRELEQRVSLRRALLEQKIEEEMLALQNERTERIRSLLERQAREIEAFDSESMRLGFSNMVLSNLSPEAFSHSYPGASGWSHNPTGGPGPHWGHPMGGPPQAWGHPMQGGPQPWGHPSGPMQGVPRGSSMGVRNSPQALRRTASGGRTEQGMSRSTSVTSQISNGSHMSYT

[17] = molecular target: Wee1-like protein kinase 2 (Homo sapiens) (UniProt P0C1S8); conditions: Compound concentration 1000.0 nM
Wee1-like protein kinase 2 (Homo sapiens), sequence (P0C1S8 whole entry, looked up): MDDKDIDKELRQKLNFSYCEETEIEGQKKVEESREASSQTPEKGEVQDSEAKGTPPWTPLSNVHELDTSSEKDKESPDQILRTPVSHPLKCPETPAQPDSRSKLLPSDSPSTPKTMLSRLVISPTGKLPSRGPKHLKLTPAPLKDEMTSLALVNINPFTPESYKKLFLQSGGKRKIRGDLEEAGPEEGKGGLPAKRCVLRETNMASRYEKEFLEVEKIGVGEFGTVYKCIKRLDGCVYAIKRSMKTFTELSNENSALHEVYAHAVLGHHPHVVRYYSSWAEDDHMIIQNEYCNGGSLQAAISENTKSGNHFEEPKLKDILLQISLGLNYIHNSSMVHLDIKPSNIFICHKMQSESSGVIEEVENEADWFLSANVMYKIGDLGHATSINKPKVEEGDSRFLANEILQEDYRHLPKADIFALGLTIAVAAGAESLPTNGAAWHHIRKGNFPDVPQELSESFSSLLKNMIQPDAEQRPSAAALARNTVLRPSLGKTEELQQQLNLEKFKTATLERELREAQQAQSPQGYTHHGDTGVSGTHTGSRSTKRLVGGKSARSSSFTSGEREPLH

Calcium/calmodulin-dependent protein kinase type II subunit gamma (Homo sapiens), sequence (Q13555 whole entry): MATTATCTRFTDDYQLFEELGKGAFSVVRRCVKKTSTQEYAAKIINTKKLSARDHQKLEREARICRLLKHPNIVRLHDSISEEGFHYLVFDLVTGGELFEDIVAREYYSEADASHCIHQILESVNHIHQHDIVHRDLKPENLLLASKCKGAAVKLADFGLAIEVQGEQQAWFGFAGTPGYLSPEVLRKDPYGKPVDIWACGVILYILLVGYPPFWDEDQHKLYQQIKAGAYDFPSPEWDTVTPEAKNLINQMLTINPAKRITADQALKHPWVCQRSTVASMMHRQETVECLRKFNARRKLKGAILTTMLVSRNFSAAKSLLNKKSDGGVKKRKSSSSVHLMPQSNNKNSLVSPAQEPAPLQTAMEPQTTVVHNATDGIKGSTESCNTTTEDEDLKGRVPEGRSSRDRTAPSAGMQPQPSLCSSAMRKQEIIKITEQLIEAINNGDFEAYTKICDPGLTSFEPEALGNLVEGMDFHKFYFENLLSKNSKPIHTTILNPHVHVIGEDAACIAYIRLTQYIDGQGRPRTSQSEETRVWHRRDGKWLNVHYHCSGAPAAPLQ
Serine/threonine-protein kinase MRCK beta (Homo sapiens), sequence (Q9Y5S2 whole entry): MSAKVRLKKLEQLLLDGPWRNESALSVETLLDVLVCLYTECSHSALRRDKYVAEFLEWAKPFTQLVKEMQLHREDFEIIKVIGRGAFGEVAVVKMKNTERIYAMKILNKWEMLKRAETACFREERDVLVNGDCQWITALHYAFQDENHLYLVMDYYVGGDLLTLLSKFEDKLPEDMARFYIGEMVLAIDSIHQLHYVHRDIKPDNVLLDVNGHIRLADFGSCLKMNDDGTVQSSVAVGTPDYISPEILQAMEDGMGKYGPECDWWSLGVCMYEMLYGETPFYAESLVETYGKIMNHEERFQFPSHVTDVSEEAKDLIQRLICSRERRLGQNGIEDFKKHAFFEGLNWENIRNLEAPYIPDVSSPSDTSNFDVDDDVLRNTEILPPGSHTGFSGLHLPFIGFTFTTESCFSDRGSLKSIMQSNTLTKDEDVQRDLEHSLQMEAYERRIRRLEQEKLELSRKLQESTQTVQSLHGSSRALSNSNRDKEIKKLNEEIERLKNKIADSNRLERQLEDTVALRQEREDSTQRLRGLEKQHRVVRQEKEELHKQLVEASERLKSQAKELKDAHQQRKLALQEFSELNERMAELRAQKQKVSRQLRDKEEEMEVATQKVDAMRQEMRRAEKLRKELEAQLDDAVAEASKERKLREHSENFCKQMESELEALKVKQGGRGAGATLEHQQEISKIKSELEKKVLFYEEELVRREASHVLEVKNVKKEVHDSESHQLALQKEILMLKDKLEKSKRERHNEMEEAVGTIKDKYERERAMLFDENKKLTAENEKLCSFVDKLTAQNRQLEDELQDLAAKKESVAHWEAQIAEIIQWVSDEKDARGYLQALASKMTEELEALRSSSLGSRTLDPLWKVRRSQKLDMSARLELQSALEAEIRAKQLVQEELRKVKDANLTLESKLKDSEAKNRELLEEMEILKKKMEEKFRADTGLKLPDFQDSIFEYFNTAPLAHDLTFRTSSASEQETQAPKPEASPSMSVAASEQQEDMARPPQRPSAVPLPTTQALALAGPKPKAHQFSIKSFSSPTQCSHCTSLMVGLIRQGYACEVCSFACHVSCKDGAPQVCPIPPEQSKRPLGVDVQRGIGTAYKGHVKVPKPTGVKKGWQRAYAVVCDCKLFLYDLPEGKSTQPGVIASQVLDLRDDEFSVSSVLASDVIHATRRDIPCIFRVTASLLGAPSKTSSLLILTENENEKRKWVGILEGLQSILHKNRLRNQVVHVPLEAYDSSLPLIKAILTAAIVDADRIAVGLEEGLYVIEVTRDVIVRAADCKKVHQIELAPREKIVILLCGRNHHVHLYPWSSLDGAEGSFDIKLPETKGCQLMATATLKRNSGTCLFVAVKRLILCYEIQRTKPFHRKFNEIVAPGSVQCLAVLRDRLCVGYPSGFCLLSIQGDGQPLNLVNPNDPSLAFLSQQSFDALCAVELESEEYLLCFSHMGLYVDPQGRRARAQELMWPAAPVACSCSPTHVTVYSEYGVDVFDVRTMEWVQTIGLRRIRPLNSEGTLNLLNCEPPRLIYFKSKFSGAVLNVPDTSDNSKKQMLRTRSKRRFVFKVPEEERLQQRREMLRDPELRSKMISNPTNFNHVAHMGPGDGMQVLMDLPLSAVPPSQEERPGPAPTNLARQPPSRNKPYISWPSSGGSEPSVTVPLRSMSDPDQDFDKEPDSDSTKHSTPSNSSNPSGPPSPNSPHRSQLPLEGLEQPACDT
Serine/threonine-protein kinase Chk2 (Homo sapiens), sequence (O96017 whole entry): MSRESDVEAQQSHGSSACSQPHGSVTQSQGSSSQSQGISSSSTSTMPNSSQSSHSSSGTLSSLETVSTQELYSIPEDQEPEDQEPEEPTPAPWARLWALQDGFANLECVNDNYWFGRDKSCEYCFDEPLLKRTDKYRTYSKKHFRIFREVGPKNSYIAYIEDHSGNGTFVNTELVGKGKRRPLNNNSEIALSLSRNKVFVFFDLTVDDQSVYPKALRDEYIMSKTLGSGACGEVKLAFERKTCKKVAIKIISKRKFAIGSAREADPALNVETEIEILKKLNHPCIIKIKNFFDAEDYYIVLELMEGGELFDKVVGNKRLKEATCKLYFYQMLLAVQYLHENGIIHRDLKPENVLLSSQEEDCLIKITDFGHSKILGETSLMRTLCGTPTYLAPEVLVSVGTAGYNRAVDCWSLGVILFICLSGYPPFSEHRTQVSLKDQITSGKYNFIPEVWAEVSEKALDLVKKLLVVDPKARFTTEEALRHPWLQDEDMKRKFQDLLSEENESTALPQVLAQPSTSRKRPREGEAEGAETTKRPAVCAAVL
Alpha-1A adrenergic receptor (Homo sapiens), sequence (P35348 whole entry): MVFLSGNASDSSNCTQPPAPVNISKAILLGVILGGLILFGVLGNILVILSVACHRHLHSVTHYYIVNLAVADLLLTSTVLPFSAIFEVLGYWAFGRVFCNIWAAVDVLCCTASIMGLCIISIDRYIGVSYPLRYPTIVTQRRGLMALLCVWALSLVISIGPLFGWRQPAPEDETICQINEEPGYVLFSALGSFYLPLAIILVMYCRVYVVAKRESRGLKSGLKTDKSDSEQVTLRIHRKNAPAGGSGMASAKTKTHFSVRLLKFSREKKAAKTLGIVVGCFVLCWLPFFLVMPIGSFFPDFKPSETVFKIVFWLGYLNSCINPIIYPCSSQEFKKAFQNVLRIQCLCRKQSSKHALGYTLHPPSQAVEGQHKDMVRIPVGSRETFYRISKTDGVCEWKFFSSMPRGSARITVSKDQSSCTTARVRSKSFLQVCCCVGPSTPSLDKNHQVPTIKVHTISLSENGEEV
Mitogen-activated protein kinase kinase kinase 12 (Homo sapiens), sequence (Q12852 whole entry): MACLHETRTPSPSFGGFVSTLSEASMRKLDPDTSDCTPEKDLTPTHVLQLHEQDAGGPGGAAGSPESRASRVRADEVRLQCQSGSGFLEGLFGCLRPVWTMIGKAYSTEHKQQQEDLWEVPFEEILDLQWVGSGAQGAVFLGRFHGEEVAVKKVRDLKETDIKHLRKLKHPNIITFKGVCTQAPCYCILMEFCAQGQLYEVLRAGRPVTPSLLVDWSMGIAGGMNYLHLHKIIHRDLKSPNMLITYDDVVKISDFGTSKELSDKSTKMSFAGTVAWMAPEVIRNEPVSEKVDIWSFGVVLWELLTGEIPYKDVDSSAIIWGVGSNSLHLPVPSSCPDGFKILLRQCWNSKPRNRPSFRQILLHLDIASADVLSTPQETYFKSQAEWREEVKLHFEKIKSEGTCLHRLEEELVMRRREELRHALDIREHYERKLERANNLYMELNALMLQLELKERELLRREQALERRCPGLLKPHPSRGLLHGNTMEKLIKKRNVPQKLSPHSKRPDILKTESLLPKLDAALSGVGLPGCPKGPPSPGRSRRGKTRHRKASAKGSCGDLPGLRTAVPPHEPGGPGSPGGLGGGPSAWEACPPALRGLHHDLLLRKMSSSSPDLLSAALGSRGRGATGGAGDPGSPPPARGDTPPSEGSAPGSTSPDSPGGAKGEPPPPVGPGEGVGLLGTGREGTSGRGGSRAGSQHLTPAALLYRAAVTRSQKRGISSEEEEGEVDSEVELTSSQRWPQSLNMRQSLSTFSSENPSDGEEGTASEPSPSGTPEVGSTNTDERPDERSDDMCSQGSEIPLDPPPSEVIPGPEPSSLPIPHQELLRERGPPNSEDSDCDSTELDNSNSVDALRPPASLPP
Cyclin-dependent kinase 4 (Homo sapiens), sequence (P11802 whole entry): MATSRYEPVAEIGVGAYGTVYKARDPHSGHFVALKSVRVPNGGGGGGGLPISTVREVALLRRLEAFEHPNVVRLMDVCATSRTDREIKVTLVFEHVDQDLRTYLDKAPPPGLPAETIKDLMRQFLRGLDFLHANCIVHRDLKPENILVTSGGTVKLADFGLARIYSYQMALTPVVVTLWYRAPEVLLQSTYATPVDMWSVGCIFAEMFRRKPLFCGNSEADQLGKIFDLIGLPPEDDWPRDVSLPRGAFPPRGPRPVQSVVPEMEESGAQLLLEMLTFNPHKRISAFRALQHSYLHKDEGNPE

Cc1nc(C2CCN(C(=O)c3ccc(OC(F)(F)F)cc3N)CC2)c2ncc(N3CCN(C)CC3)cc2n1 [BAY-693]
inactive: residual activity [1] 91% | residual activity [2] 89% | residual activity [3] 100% | residual activity [4] 100% | residual activity [5] 84% | residual activity [6] 100% | residual activity [7] 100% | residual activity [8] 100% | residual activity [9] 96% | residual activity [10] 86% | residual activity [11] 100% | inhibition [12] -3.81% | residual activity [13] 100% | inhibition [14] -9.85% | residual activity [15] 100% | residual activity [16] 100% | residual activity [17] 100%

CN1CCN(c2cnc3c(C4CCN(C(=O)c5ccc(OC(F)(F)F)cc5N)CC4)ncnc3c2)CC1 [BAY-885]
inactive: residual activity [1] 100% | residual activity [2] 100% | residual activity [3] 100% | residual activity [4] 100% | residual activity [5] 100% | residual activity [6] 100% | residual activity [7] 100% | residual activity [8] 100% | residual activity [9] 100% | residual activity [10] 100% | residual activity [11] 97% | inhibition [12] 2.02% | residual activity [13] 81% | inhibition [14] 1.11% | residual activity [15] 100% | residual activity [16] 100% | residual activity [17] 100%
